{
  "source": "patent EP1985629A1",
  "about": "“Pro-apoptotic molecules and therapeutic uses thereof” (UNIVERSITA DEGLI STUDI DI GENOVA, priority 2007, dated 2008)",
  "key": {"[1]": {"assay": "Peptides stability in medium with 10% FBS or in 100% FBS (HPLC-MS)", "type": "in vitro ADME", "conditions": "37°C", "description": "Compounds were added to the medium solution of serum 10% or 100% FBS at the final concentration of 32 µM. Several extraction mixtures were attempted: MeOH; MeOH with 0,1% trifluoroacetic acid (TFA); (H2O: MeOH) 1:1, 1:4, 4;1. A perchloric acid (PCA) protein precipitation protocol was also tried. […] In both cases ice-cold methanol was added to the peptide solution. The mixture was centrifuged and the resulting supernatant was then added with ice-cold methanol (alone or containing 0,1% TFA) at a 1:1 final ratio and this procedure was repeated twice. Before extraction peptides were incubated in 10% FBS or 100% FBS at 37°C and, at different incubation times (0', 6, 24 and 48 hours), a sample of 50 µl was collected to be analyzed by HPLC-MS."}, "U937 cell line": {"system": "U937 cell line", "assay": "Cell growth, cell counts (trypan blue exclusion)", "type": "cell-based, human", "conditions": "U937, 1 µM up to 30 µM, four days", "description": "(§1) • Figure 1 Fluorescence Anisotropy Assay. Average anisotropy values: (open square) binding assay for increasing concentrations of Bcl-XL at a fixed concentration of fluorescent Bak-BH3 peptide. […] The error bars represent standard deviations observed from triplicate experiments. • Figure 2 072RB: cell growth effects. Panel A: Cell growth of U937 cell line treated for four days every 24 h at a 1 µM 072RB concentration and every 48 h at 3, 5, 10 and 30 µM 072RB concentrations. U937 controls at day 4, cell number: 350,000 ±50,000. Number of cells seeded at day 0: 20,000. Arrows indicate treatment time. […] All cells were counted in a Burker chamber and values are expressed as percentage of the untreated control cell number. Only living cells identified by trypan blue exclusion staining were counted. […] Flow cytometry measurements of DNA content (evaluated by propidium iodide (PI) fluorescence intensity) and physical cell side-scattering (evaluated by SSC) in U937 cells treated with Int and 072RB at 10 µM, twice each 48h. […] Three main cell populations can be observed in the bivariate PI/SSC plots, one with low SSC and normal DNA content (that accounts for \"live\" cells in culture), another with high SSC and normal DNA content (cells undergoing \"early stage of apoptosis\") and another one with lower PI fluorescence (cells at \"late stage of apoptosis\" and debris). […]"}, "U937, Jurkat, Namalwa": {"system": "U937, Jurkat, Namalwa", "assay": "Cell growth, cell counts (trypan blue exclusion), three cell lines", "type": "cell-based, human", "conditions": "10 µM, twice every 48 h, four days", "description": "as §1"}},
  "note": "Where a SMILES comes first, the peptide text is derived from it. [ ]: non-standard residue; d: D form. Aib = CC(C)(N)C(=O)O",
  "data": [
    {"smiles": "CC[C@H](C)[C@H](NC(=O)[C@H](CCCNC(=N)N)NC(=O)[C@H](CCCNC(=N)N)NC(=O)[C@H](CC(C)C)NC(=O)[C@H](CCC(=O)O)NC(=O)[C@H](CCC(N)=O)NC(=O)C(C)(C)NC(=O)[C@@H](NC(=O)[C@H](Cc1ccc(O)cc1)NC(=O)[C@@H](NC(=O)[C@H](CCC(=O)O)NC(=O)[C@@H]1CCCN1C(=O)[C@H](CCCNC(=N)N)NC(=O)[C@H](CCSC)NC(=O)[C@@H](N)CC(=O)O)[C@@H](C)CC)[C@@H](C)CC)C(=O)NCC(=O)N[C@@H](CC(=O)O)C(=O)N[C@@H](C)C(=O)N[C@@H](Cc1ccccc1)C(=O)N[C@@H](CC(N)=O)C(=O)NC(C)(C)C(=O)N[C@@H](Cc1ccc(O)cc1)C(=O)N[C@@H](CCCCN)C(=O)N[C@@H](CCCCN)C(=O)N[C@@H](Cc1c[nH]c2ccccc12)C(=O)N[C@@H](CCCCN)C(=O)N[C@@H](CCSC)C(=O)N[C@@H](CCCNC(=N)N)C(=O)N[C@@H](CCCNC(=N)N)C(=O)N[C@@H](CC(N)=O)C(=O)N1CCC[C@H]1C(=O)N[C@@H](Cc1ccccc1)C(=O)N[C@@H](Cc1c[nH]c2ccccc12)C(=O)N[C@H](C(=O)N[C@@H](CCCCN)C(=O)N[C@H](C(=O)N[C@@H](CCC(N)=O)C(=O)N[C@@H](CCCNC(=N)N)C(N)=O)[C@@H](C)CC)[C@@H](C)CC", "note": "[Peptide 072RB] (H-DMRPEIYI[Aib]QELRRIGDAFN[Aib]YKKWKMRRNPFWIKIQR-NH2; N-terminus and C-terminus assumed)", "values": [
      {"measurement": "half-life at 32 µM", "setting": "[1]; RPMI 1640 medium with 10% fetal bovine serum (FBS), medium (RPMI 1640) with 10% FBS, calculated by linear regression", "value": 36.5, "unit": "h"},
      {"measurement": "half-life at 32 µM", "setting": "[1]; bovine, 100% fetal bovine serum (FBS), 100% FBS", "value": 17.8, "unit": "h"},
      {"measurement": "cell growth (cell counts)", "setting": "U937 cell line", "value": "dose-dependent inhibition of cell growth"},
      {"measurement": "cell growth compared to control cultures", "setting": "U937, Jurkat, Namalwa", "value": "progressive decrease of cell growth"}
    ]}
  ]
}
